Assay results as given in PMC6934184, “Selective DNA-PKcs inhibition extends the therapeutic index of localized radiotherapy and chemotherapy” (The Journal of Clinical Investigation, 2019).

Target: T1, MAPKAPK3 (Homo sapiens, UniProt Q16644)
T1 construct: purchased Thermo Fisher Scientific (Life Technologies) SelectScreen
Test: SelectScreen Z'LYTE
Format: biochemical
Method in brief: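 Percent values come from Thermo SelectScreen profiling of NU5455, combining activity and binding assays. CSF1R was run in Z'LYTE format at Km app ATP, and CAMK1 in Adapta format with ATP listed at 10.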

T1 sequence (Q16644 whole entry): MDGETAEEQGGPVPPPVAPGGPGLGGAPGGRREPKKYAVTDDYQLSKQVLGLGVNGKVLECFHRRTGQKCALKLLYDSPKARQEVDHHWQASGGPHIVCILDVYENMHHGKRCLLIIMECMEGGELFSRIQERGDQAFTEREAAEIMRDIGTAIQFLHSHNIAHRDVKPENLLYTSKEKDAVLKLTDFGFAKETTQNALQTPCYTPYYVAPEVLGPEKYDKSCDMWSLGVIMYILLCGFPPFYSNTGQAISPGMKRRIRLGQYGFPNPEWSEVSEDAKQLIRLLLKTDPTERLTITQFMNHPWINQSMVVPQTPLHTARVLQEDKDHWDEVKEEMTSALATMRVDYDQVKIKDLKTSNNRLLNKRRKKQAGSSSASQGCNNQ

## CN(C(=O)CN1CCOCC1)c1ccc2sc3c(-c4cccc5c(=O)cc(N6CC7CCC(C6)O7)oc45)cccc3c2c1 [NU5455]
  inhibition at 1 µM: 1.4%
